Here are results for one compound from patent publication US20220133738A1, “GENOTYPE AND DOSE-DEPENDENT RESPONSE TO AN ASBTI IN PATIENTS WITH BILE SALT EXPORT PUMP DEFICIENCY” (MIRUM PHARMACEUTICALS, INC., priority 2019, published 2022).

This data set concerns overweight and obese adults. As to the kind of experiment: Dose-ranging phase 1 clinical study (NCT02475317): fecal bile acid excretion with maralixibat and volixibat. The data set is classed as in vivo, human. The settings on record: for fBA excretion, mean change from baseline: baseline to day 6 and 7.

For `CCCC[C@]1(CC)CS(=O)(=O)c2ccc(N(C)C)cc2[C@@H](c2cccc(NC(=O)N[C@@H]3O[C@H](COS(=O)(=O)O)[C@@H](O)[C@H](OCc4ccccc4)[C@H]3O)c2)[C@H]1O` [volixibat], the “fBA excretion, mean change from baseline” value by setting is: (10 mg dose (QD), 7 days) 744 µmol; (20 mg dose (QD), 7 days) 874 µmol. Moreover, the “fBA excretion, dose dependence” value (across tested doses, 7 days) was “increased in a dose-dependent manner”. Under “all doses, 7 days”, the treatment-emergent adverse events entry is “mild, and none were serious”. Also, the “Mean serum 7αC4” value (baseline to day 7, greatest change at maralixibat 50 mg BID) is “increased”. In addition, where the note is “day 7 versus baseline”, the “Mean sBA levels” value was “not elevated”.
